Source: patent US9682941B2, “Substituted biphenyl analogues as dual inhibitors of aromatase and sulfatase” (ESTRYX PHARMA LIMITED, priority 2013, dated 2017)

Legend:
aromatase = molecular target: T1, aromatase (Homo sapiens, UniProt P11511); test: Aromatase inhibition assay in JEG-3 cells ([1β-3H] androstenedione, tritiated water release); type: cell-based; conditions: 1.25 hour incubation, duplicate
T1 construct: JEG-3 which constitutively expresses high amount of aromatase and steroid sulfatase; endogenous in cells; host or cells: JEG-3
T1 sequence (P11511 1-503): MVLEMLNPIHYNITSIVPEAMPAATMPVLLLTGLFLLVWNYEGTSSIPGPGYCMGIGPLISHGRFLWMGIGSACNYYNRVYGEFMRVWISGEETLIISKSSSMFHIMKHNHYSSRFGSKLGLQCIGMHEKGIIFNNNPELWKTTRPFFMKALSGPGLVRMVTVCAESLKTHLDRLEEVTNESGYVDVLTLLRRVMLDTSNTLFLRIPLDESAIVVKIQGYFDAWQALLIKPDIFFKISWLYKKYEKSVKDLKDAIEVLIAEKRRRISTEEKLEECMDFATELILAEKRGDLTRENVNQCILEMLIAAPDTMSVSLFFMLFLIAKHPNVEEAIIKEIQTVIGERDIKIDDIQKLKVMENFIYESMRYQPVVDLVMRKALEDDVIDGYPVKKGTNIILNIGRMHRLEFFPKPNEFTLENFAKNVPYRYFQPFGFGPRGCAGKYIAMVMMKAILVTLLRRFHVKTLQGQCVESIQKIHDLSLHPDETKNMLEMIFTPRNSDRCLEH
Description: (§1) Aromatase and steroid sulfatase enzymes inhibitions were evaluated in the human chorionic carcinoma cell line JEG-3 which constitutively expresses high amount of aromatase and steroid sulfatase.
For aromatase inhibition assay, JEG-3 cells were seeded into 96-well plates at 35,000 cells/well and maintained in MEM containing supplements. When reaching 80% confluent, the cells were washed once with serum-free MEM, incubated with [1β-^3H] androstenedione (A4, 0.2 μCi/ml) for 1.25 hour in the presence of the test substances added in a concentration series. The product, tritiated water (^3H2O), was separated using 2.5% (w/v) dextran-coated charcoal at 4-8° C. for 2 hours. The supernatant radioactivity was measured by a MicroBeta scintillation counter.
(§2) Experiments are performed in duplicate. The inhibitory concentration of 50% of the enzymatic activity is calculated.

steroid sulfatase = molecular target: T2, steroid sulfatase (Homo sapiens, UniProt P08842); test: Steroid sulfatase (STS) inhibition assay in JEG-3 cells ([6,7-3H] estrone sulfate); type: cell-based; conditions: 1 hour at 37° C., duplicate
T2 construct: JEG-3 which constitutively expresses high amount of aromatase and steroid sulfatase; endogenous in cells; host or cells: JEG-3
T2 sequence (P08842 22-583): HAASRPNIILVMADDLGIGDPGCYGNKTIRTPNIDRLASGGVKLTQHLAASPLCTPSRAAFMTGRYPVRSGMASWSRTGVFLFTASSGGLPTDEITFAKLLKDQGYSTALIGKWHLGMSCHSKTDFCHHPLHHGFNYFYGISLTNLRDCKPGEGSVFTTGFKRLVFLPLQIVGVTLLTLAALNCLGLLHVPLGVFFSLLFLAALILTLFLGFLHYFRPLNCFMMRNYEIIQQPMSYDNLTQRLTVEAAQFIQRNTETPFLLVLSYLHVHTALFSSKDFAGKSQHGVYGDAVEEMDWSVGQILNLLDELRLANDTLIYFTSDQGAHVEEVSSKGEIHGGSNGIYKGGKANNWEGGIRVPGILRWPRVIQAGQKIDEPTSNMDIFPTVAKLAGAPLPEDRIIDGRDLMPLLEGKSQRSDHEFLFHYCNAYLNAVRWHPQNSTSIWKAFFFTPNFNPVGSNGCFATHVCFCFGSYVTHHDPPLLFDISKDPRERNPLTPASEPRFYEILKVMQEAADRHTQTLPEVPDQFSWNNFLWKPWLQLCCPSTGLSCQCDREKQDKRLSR
Description: as §1
For STS assay, JEG-3 cells were seeded into 24-well culture plates at 150,000 cells/ml/well and maintained in MEM containing supplements overnight. When reaching 80% confluent, the cells were washed once with serum-free MEM, loaded with 1 ml of substrate mix containing [6,7-3H] Estrone sulfate (E1S, 0.6 μCi/ml) and [4-14C] Estrone (E1, 4 nCi/ml) in the presence of compounds in a concentration series, and incubated for 1 hour at 37° C. The product [3H]E1 was separated from E1S by toluene partition using [4-14C]E1 to monitor extraction procedural losses, and the toluene fraction radioactivity was measured by a MicroBeta scintillation counter.
as §2

| Compound | IC50 (aromatase) | IC50 (steroid sulfatase) |
| --- | --- | --- |
| CN(c1ccc(C#N)c(-c2ccc(OS(N)(=O)=O)cc2)c1)n1nnc2ccccc21 [Example 13, 5′-((1H-Benzo[d][1,2,3]triazol-1-yl)(methyl)amino)-2′-cyanobiphenyl-4-yl sulfamate] | 13.1 nM | > 60 nM |
| CN(c1ncc(C#N)c(-c2ccc(OS(N)(=O)=O)cc2)n1)n1cnc2ccccc21 [Example 16, 4-(2-((1H-Benzo[d]imidazol-1-yl)(methyl)amino)-5-cyanopyrimidin-4-yl)phenyl sulfamate] | 6.4 nM | 22 nM |
| N#Cc1ccc(Cn2cnc3ccccc32)nc1-c1ccc(OS(N)(=O)=O)cn1 [Example 42, 6′-((1H-Benzo[d]imidazol-1-yl)methyl)-3′-cyano-[2,2′-bipyridin]-5-yl sulfamate] | 41.9 nM | > 60 nM |
| N#Cc1ccc(Cn2cnc3cccnc32)nc1-c1ccc(OS(N)(=O)=O)cc1 [Example 14, 4-(6-((3H-Imidazo[4,5-b]pyridin-3-yl)methyl)-3-cyanopyridin-2-yl)phenyl sulfamate] | 7 nM | 21.7 nM |
| N#Cc1ccc(Cn2cnc3cccnc32)cc1-c1ccc(OS(N)(=O)=O)cn1 [Example 33, 6-(5-((3H-Imidazo[4,5-b]pyridin-3-yl)methyl)-2-cyanophenyl)pyridin-3-yl sulfamate] | 9 nM | 17.6 nM |
| N#Cc1ccc(Nn2cnc3cccnc32)nc1-c1ccc(OS(N)(=O)=O)cc1 [Example 46, 4-(6-(3H-Imidazo[4,5-b]pyridin-3-ylamino)-3-cyanopyridin-2-yl)phenyl sulfamate] | 21.7 nM | 39.5 nM |
| N#Cc1cnc(Cn2cnc3cccnc32)nc1-c1ccc(OS(N)(=O)=O)cc1 [Example 25, 4-(2-((3H-Imidazo[4,5-b]pyridin-3-yl)methyl)-5-cyanopyrimidin-4-yl)phenyl sulfamate] | 6.2 nM | 10.7 nM |
| N#Cc1ncc(Nn2cnc3cccnc32)nc1-c1ccc(OS(N)(=O)=O)cc1 [Example 40, 4-(6-(3H-Imidazo[4,5-b]pyridin-3-ylamino)-3-cyanopyrazin-2-yl)phenyl sulfamate] | > 60 nM | 18.8 nM |

Other lines, results leading:

| IC50 (aromatase) | IC50 (steroid sulfatase) | Compound |
| --- | --- | --- |
| 2.2 nM | > 60 nM | CSc1ccc(-c2cc(Nn3cnc4ccccc43)ccc2C#N)cc1OS(N)(=O)=O [Example 21, 5′-((1H-Benzo[d]imidazol-1-yl)amino)-2′-cyano-4-(methylthio)-[1,1′-biphenyl]-3-yl sulfamate] |
| 2.9 nM | 52.3 nM | CSc1cc(-c2cc(Nn3cnc4ccccc43)ccc2C#N)ccc1OS(N)(=O)=O [Example 20, 5′-((1H-Benzo[d]imidazol-1-yl)amino)-2′-cyano-3-(methylthio)-[1,1′-biphenyl]-4-yl sulfamate] |
| 5.9 nM | 7.2 nM | N#Cc1ccc(Cn2cnc3ccccc32)cc1-c1ccc(OS(N)(=O)=O)cn1 [Example 30, 6-(5-((1H-Benzo[d]imidazol-1-yl)methyl)-2-cyanophenyl)pyridin-3-yl sulfamate] |
| 6.5 nM | 7.1 nM | CN(c1ccc(C#N)c(-c2ccc(OS(N)(=O)=O)cc2)n1)n1cnc2ccccc21 [Example 23, 4-(6-((1H-Benzo[d]imidazol-1-yl)(methyl)amino)-3-cyanopyridin-2-yl)phenyl sulfamate] |
| 17.5 nM | 14.6 nM | N#Cc1cnc(Nn2cnc3ccccc32)nc1-c1ccc(OS(N)(=O)=O)cc1 [Example 15, 4-(2-(1H-Benzo[d]imidazol-1-ylamino)-5-cyanopyrimidin-4-yl)phenyl sulfamate] |
| 37.6 nM | 19.5 nM | N#Cc1ncc(Nn2cnc3ccccc32)nc1-c1ccc(OS(N)(=O)=O)cc1 [Example 32, 4-(6-(1H-Benzo[d]imidazol-1-ylamino)-3-cyanopyrazin-2-yl)phenyl sulfamate] |
| 1.2 nM | 26.4 nM | CSc1cc(-c2cc(Cn3cnc4ccccc43)ccc2C#N)ccc1OS(N)(=O)=O [Example 18, 5′-((1H-Benzo[d]imidazol-1-yl)methyl)-2′-cyano-3-(methylthio)-[1,1′-biphenyl]-4-yl sulfamate] |
